From ChEMBL document CHEMBL1146148, “Hydroxyl radical scavenging by edaravone derivatives: Efficient scavenging by 3-methyl-1-(pyridin-2-yl)-5-pyrazolone with an intramolecular base” (Bioorg Med Chem Lett, 2006)

Assay: Hydroxyl radical scavenging activity by ESR spin-trapping method
Type: functional

IC50 [µM] | Compound
720 | CC1=NN(c2ccccc2)C(=O)C1C1CC1 (stereo not drawn)
250 | CC1=NN(c2ccccc2)C(=O)C1 [EDARAVONE]
500 | CC1=NN(c2ccc([N+](=O)[O-])cc2)C(=O)C1
790 | CC1=NN(c2ccccc2)C(=O)C1c1ccccc1 (stereo not drawn)
18 | CC1=NN(c2ccccn2)C(=O)C1
810 | O=C1CC(C(F)(F)F)=NN1c1ccccc1
610 | CC1=NN(c2ccccc2)C(=O)C1C(=O)c1ccccc1 (stereo not drawn)

Compound | IC50 [µM]
O=C(NC1=NN(c2ccccc2)C(=O)C1)Oc1ccccc1 | 380
